From US7605149B1, “Modulation of the phospholipase A2 pathway as a therapeutic” (University of South Florida, priority 1998, dated 2009)
Like-named read-outs stand apart in the source and are kept apart here.

Tested on: rat aortae (aortic rings)
Assay: Vessel bath vasoactivity assay: ET-1-induced vasoconstriction of rat aortic rings and its enhancement by Aβ or sPLA2
Type: cell-based
Settings: for effect on sPLA2-induced vasoconstriction: inactivation of sPLA2
Method: Vessel experiments. Freshly dissected aortae were prepared from normal male Sprague-Dawley rats (7-8 months old, purchased from Zivic Miller, Zelienople, Pa.) as previously described by Paris et al, Exp Neurol 1998 and Exp Neurol 1999. Rat aortae were segmented into rings and suspended in Kreb's buffer on hooks connected to a tensiometer linked to a MacLab system. Aortic rings were equilibrated for 2 hours, in 7 mL tissue baths containing Kreb's buffer oxygenated with 95% O2: 5% CO2, and thermoregulated to 37° C. A baseline tension of 2 g was applied to each ring, and the first set of aortic rings was pretreated with the various compounds named above either alone or in combination with Aβ peptides. After 5 minutes of incubation in the presence or absence of Aβ, this first set of vessels was subjected to a dose range of ET-1 (from 1 nM to 5 nM). A second set of vessels was treated with 1 μM of Aβ peptides prior to the addition of ET-1. A third set (control) received only ET-1 treatment. Each ET-1 dose was added only after the constriction response to the previous dose had reached a plateau. In all cases the means ±1 standard error (SE) of the percentage vasoconstriction increase over baseline were determined for each dose of ET-1 used.
Statistical analysis. Analysis of variance (ANOVA) was used to analyze the data, with post-hoc comparisons of means carried out where appropriate by Sheffe's or Bonferonni's methods. As previously described (Paris et al., Neurosci Lett, 1998), a significant interactive term by ANOVA was taken as evidence that both drug x and Aβ are modulating a common signal transduction pathway. […] Levene's test for equality of variance followed by t-test for independent samples was used for single mean comparisons. Alpha levels were set at 0.05 for all analyses. Analyses were performed using SPSS for Windows release 9.5.

[1] = 1 μM with 1 μM Aβ1-40, 5 minutes prior to ET-1, FIGS. 7, 9, 10, 12

isotetrandrine
effect on Aβ vasoactivity (Aβ1-40 enhancement of ET-1-induced vasoconstriction) (25 μM with 1 μM Aβ1-40, FIGS. 5, 16): partially blocked Aβ vasoactivity

CCCCC/C=C\C/C=C\C/C=C\C/C=C\CCCC(=O)O [AA, Arachidonic acid]
effect on ET-1-induced vasoconstriction (concentration not given): can enhance ET-1-induced constriction

O[C@@H](CS)[C@@H](O)CS (racemic) [dithiothreithol]
effect on sPLA2-induced vasoconstriction (concentration not given): inhibition of sPLA2-induced vasoconstriction

APP657-676: APP-derived peptide, a known stimulator of Go (EFRHDSGYEVHHQKLVFFAE; UniProt P05067 674-693, looked up, fragment)
effect on Aβ vasoactivity (concentration not given): not able to modulate ET-1-induced vasoconstriction or to affect Aβ-vasoactivity | effect on ET-1-induced vasoconstriction (concentration not given): not able to modulate ET-1-induced vasoconstriction

diacylglycerol [DAG]
effect on ET-1-induced vasoconstriction (10 μM, 5 minutes prior to ET-1 dose range, FIG. 14): able to potentiate ET-1-induced vasoconstriction

O=c1c(O)c(-c2ccc(O)c(O)c2)oc2cc(O)cc(O)c12 [Quercetin, quercetin]
effect on Aβ vasoactivity (Aβ1-40 enhancement of ET-1-induced vasoconstriction) (10 μM with 1 μM Aβ1-40, FIGS. 8, 14): unable to block Aβ vasoactivity

pertussis toxin
effect on Aβ vasoactivity (concentration not given): insensitive

CC(C)c1ccc2c(c1)c(SC(C)(C)C)c(CC(C)(C)C(=O)O)n2Cc1ccc(Cl)cc1 [MK-886]
effect on Aβ vasoactivity (Aβ1-40 enhancement of ET-1-induced vasoconstriction) [1]: markedly inhibits Aβ vasoactivity

CN(C)CCCn1cc(C2=C(c3c[nH]c4ccccc34)C(=O)NC2=O)c2ccccc21 [bisindolylmaleimide I]
effect on Aβ vasoactivity (Aβ1-40 enhancement of ET-1-induced vasoconstriction) (1.5 μM with 1 μM Aβ1-40, FIG. 15): reduction in Aβ vasoactivity was merely additive | effect on ET-1-induced vasoconstriction (1.5 μM, 5 minutes prior to ET-1 dose range, FIG. 15): statistically interactive reduction in ET-1-induced vasoconstriction

CC[C@H](C)[C@H](NC(=O)CN)C(=O)NCC(=O)N[C@@H](C)C(=O)N[C@H](C(=O)N[C@@H](CC(C)C)C(=O)N[C@@H](CCCCN)C(=O)N[C@H](C(=O)N[C@@H](CC(C)C)C(=O)N[C@H](C(=O)N[C@H](C(=O)NCC(=O)N[C@@H](CC(C)C)C(=O)N1CCC[C@H]1C(=O)N[C@@H](C)C(=O)N[C@@H](CC(C)C)C(=O)N[C@H](C(=O)N[C@@H](CO)C(=O)N[C@@H](Cc1c[nH]c2ccccc12)C(=O)N[C@H](C(=O)N[C@@H](CCCCN)C(=O)N[C@@H](CCCNC(=N)N)C(=O)N[C@@H](CCCCN)C(=O)N[C@@H](CCCNC(=N)N)C(=O)N[C@@H](CCC(N)=O)C(=O)N[C@@H](CCC(N)=O)C(N)=O)[C@@H](C)CC)[C@@H](C)CC)[C@@H](C)O)[C@@H](C)O)C(C)C)C(C)C [Melittin]
effect on ET-1-induced vasoconstriction (1 μM, 5 minutes prior to ET-1 dose range (1-5 nM), FIG. 3): potentiate ET-1-induced vasoconstriction to a similar extent as Aβ

CCCCCCCC/C=C\CCCCCCCCOCCOP(=O)([O-])OCC[N+](C)(C)C [oleylox., oleyloxyethylphosphocholine]
effect on Aβ vasoactivity (Aβ1-40 enhancement of ET-1-induced vasoconstriction) [1]: completely blocks | effect on Aβ1-42 vasoactivity (1 μM with Aβ1-42): completely blocks | effect on sPLA2-induced vasoconstriction (concentration not given): inhibition of sPLA2-induced vasoconstriction

O=C(NCCCCCCNC(=O)ON=C1CCCCC1)ON=C1CCCCC1 [RHC-80267]
effect on Aβ vasoactivity (Aβ1-40 enhancement of ET-1-induced vasoconstriction) (8 μM with 1 μM Aβ1-40, FIG. 13): not able to modulate ET-1-induced vasoconstriction or to affect Aβ enhancement of ET-1-induced vasoconstriction | effect on ET-1-induced vasoconstriction (8 μM, 5 minutes prior to ET-1 dose range, FIG. 13): not able to modulate ET-1-induced vasoconstriction

O=C1O/C(=C/Br)CCC1c1cccc2ccccc12 (centres unmarked) [HELSS, haloenol lactone suicide substrate]
effect on Aβ vasoactivity (Aβ1-40 enhancement of ET-1-induced vasoconstriction) [1]: unable to affect Aβ-induced vasoactivity

COc1cccc2c1cc([N+](=O)[O-])c1c(C(=O)O)cc3c(c12)OCO3 [aristolochic acid]
effect on Aβ vasoactivity (high doses (25 μM)): partial blockade of the vasoactive properties of Aβ | effect on Aβ vasoactivity (low doses (<10 μM)): unable to affect Aβ vasoactivity

p-aminophenyl-α-D-mannopyranoside-bovine serum albumin [mannose-BSA]
effect on ET-1-induced vasoconstriction: vasoactive to a similar extent as Aβ

mastoparan
effect on ET-1-induced vasoconstriction (5 μM, 5 minutes prior to ET-1 dose range, FIG. 4): potentiate ET-1-induced vasoconstriction to a similar extent as Aβ

CC(C)NCC(O)COc1cccc2ccccc12 (centres unmarked) [propanolol]
effect on Aβ vasoactivity (concentration not given): unable to block Aβ vasoactivity
